What was measured:
[1] = system: MYC protein in HeLa cells; assay: Immunoblotting of MYC protein in HeLa cell lysates; type: cell-based, human
Method: Figure 3. Induction of MYC mRNA production in response to sustained inhibition of CDK9 by i-CDK9 and the requirement of MYC's natural genomic structure in this process. (A) The indicated tumor cell lines were treated with i-CDK9 (0.5 μM) for 2–16 hr and the MYC mRNA levels, which were divided by those in the DMSO-treated cells and averaged from three independent replicates of DNA microarray analysis, were shown as log2 values. (B) HeLa cells were treated with the indicated concentrations of i-CDK9 for 8 hr and the various proteins in the total cell lysates were detected by immunoblotting as indicated. Quantifications of the levels of MYC protein and Ser2-phosphoryalted Pol II (pSer2) in the lysates were shown above and below the immunoblots, respectively. […] The levels of the indicated proteins were examined by immunoblotting. (G) A HeLa-based cell line containing the stably transfected, doxycycline (Dox)-inducible MYC-F-expressing plasmid driven by the CMV promoter was pretreated with (+) or without (−) Dox prior to incubation with i-CDK9 or DMSO. MYC and MYC-F expressed from the endogenous MYC locus and the transfected plasmid, respectively, were detected by immunoblotting. DOI: http://dx.doi.org/10.7554/eLife.06535.007 Figure 3—figure supplement 1. Biphasic response of MYC mRNA production throughout the course of CDK9 inhibition by i-CDK9. DOI: http://dx.doi.org/10.7554/eLife.06535.008 [drawing 2] Figure 3—Figure supplement 2. […] DOI: http://dx.doi.org/10.7554/eLife.06535.009 [drawing 3] TEXT PRINTED IN THE PICTURE: (B) i-CDK9: Fold increase in MYC protein: 1.0 (i-CDK9 (μM): 0); Fold increase in MYC protein: 1.2 (i-CDK9 (μM): 0.01); Fold increase in MYC protein: 1.7 (i-CDK9 (μM): 0.03); Fold increase in MYC protein: 3.6 (i-CDK9 (μM): 0.1); Fold increase in MYC protein: 5.2 (i-CDK9 (μM): 0.3); Fold increase in MYC protein: 5.5 (i-CDK9 (μM): 1.0) | (C) i-CDK9: Fold increase in MYC protein: 1.0 (0.3 μM i-CDK9 (h): 0); Fold increase in MYC protein: 0.9 (0.3 μM i-CDK9 (h): 1); Fold increase in MYC protein: 1.1 (0.3 μM i-CDK9 (h): 2); Fold increase in MYC protein: 1.2 (0.3 μM i-CDK9 (h): 4); Fold increase in MYC protein: 3.3 (0.3 μM i-CDK9 (h): 8)
First, the induction of MYC protein level was confirmed in HeLa cells treated with i-CDK9. […] It took 1.0 µM i-CDK9 to cause up to 85% reduction in pSer2. In a separate time-course analysis, the 8-hr incubation with i-CDK9 (0.3 μM) induced the MYC level by 3.3-fold, whereas the same condition reduced the pSer2 level by only 40% (Figure 3C). Thus, MYC expression was highly responsive to i-CDK9 treatment and occurred at a time point earlier and drug concentration lower than those required to achieve a significant suppression of Ser2 phosphorylation on the Pol II CTD.

[2] = system: 7SK snRNP in HeLa-based F1C2 cells; assay: CDK9-F co-immunoprecipitation: disruption of 7SK snRNP, formation of BRD4-P-TEFb; type: cell-based, human
Method: A number of stress-inducing agents/conditions are known to cause the release of P-TEFb from 7SK snRNP, which serves as the principal reservoir of uncommitted P-TEFb activity in the nucleus (reviewed in [Zhou et al., 2012]). […] CDK9-F was stably expressed in the HeLa-based F1C2 cells ([Yang et al., 2001]) that were treated with a wide range of i-CDK9 concentrations for 8 hr.
Just like the induction of MYC expression (Figure 3B), the disruption of 7SK snRNP and formation of BRD4-P-TEFb were highly sensitive to i-CDK9 and required as little as 0.1 μM of the drug (Figure 4A, compare lane 8 to lane 6). […] In a time course analysis, i-CDK9 (0.3 μM)-induced disruption of 7SK snRNP at a time point (1 hr) that was much earlier than that required to cause about 50% reduction in global pSer2 (8 hr; Figure 4—figure supplement 1).
All Co-immunoprecipitation experiments were performed in NEs prepared from F1C2 cells that stably express CDK9-F or the parental HeLa cells transfected with the indicated cDNAs. The procedures have been described previously ([Lu et al., 2014]).

[3] = target: JAK1(JH1domain-catalytic) (Homo sapiens, UniProt P23458); assay: KINOMEscan binding assay; set-up: JAK1(JH1domain-catalytic); purchased DiscoveRx KINOMEscan
JAK1(JH1domain-catalytic), sequence (P23458 854-1154 limits assumed): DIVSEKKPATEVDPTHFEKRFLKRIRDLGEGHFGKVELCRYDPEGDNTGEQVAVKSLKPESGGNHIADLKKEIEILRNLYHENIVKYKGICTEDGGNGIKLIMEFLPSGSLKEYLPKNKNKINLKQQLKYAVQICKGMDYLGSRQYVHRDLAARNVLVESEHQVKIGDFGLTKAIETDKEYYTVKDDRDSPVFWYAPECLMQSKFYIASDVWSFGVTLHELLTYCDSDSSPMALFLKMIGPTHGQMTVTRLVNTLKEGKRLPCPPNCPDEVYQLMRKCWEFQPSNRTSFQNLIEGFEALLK
Method: As there are no commercial or in-house kinase assays available for CDK3, CDK5, CDK11 and CDK13, the inhibitory abilities of i-CDK9 toward these CDKs were thus evaluated in the DiscoveRx KINOMEscan assay, which is based on a proprietary active site-directed competition-binding platform ([Fabian et al., 2005]).
The inhibitory activity of i-CDK9 for CDK1-CycB (Upstate/Millipore), CDK2-CycA (Invitrogen), CDK4-CycD1 (Novartis), CDK7-CycH-MAT1 (Invitrogen), and CDK9-CycT1 (Invitrogen) was assessed in the AlphaScreen (PerkinElmer, Inc)-based kinase assay developed at Novartis. Briefly, each CDK–cyclin pair was pre-incubated with i-CDK9 for 15 min, followed by addition of kinase substrates (ELK for CDK1 and CDK2, RB for CDK4, and CDK7tide for CDK7 and CDK9). The mixture was incubated at room temperature for additional 4–5 hr. The reaction was stopped and read on Envision (PerkinElmer, Inc). Selectivity against a large panel of over 400 kinases was evaluated using the KINOMEscan platform (DiscoveRx, CA) employing a proprietary active site-directed competition binding assay ([Fabian et al., 2005]). The assay was conducted at two different concentrations of i-CDK9 (1 and 10 µM) by DiscoveRx.

`N[C@H]1CC[C@H](Nc2cc(-c3cccc(NCc4cccc(F)c4)n3)c(Cl)cn2)CC1` [i-CDK9, N2′-(trans-4-aminocyclohexyl)-5′-chloro-N6-(3-fluorobenzyl)-2,4′-bipyridine-2′,6-diamine] was tested, and the “Fold increase in MYC protein” value ([1]; 0.01 μM, 8 hr) was 1.2 fold, the “Fold increase in MYC protein” value ([1]; 0.03 μM, 8 hr) was 1.7 fold and the “Fold increase in MYC protein” value ([1]; 0.1 μM, 8 hr) was 3.6 fold. For the same compound, the “Fold increase in MYC protein” value ([1]; 0.3 μM, 1 h (time course)) was 0.9 fold, the “Fold increase in MYC protein” value ([1]; 0.3 μM, 2 h (time course)) was 1.1 fold and the “Fold increase in MYC protein” value ([1]; 0.3 μM, 4 h (time course)) was 1.2 fold. The “Fold increase in MYC protein” value ([1]; 0.3 μM, 8 h (time course)) was 3.3 fold, the “Fold increase in MYC protein” value ([1]; 0.3 μM, 8 hr (dose series)) was 5.2 fold and the “Fold increase in MYC protein” value ([1]; 1.0 μM, 8 hr) was 5.5 fold. The MYC induction ([1]; 2 μM added at time zero) was “No MYC induction”, the “time point of disruption of 7SK snRNP” value ([2]; 0.3 μM) was 1 h and the “concentration required for disruption of 7SK snRNP and formation of BRD4-P-TEFb” value ([2]; 8 hr) was 0.1 µM. The “% Retention on Solid Support” value ([3]; 1 µM i-CDK9) was 100% and the “% Retention on Solid Support” value ([3]; 10 µM i-CDK9) was 100%.
